Test results taken from patent publication US10189812B2, “Bi-benzyl isoquinoline derivative, preparation method and use thereof in hepatopathy treatment and prevention” (THE KEY LABORATORY OF CHEMISTRY FOR NATURAL PRODUCTS OF …, priority 2014, dated 2019).
Like-named read-outs stand apart in the source and are kept apart here.

Assays:
[1] = system: PLC/PRF/5 liver cancer cell strains; assay: Tetrazolium salt reduction method (MTT) on human liver cancer cell strain PLC/PRF/5; format: cell-based
Protocol: 2. human liver cancer cell strains PLC/PRF/5 model discrimination
(§1) Tested methods: Tetrazolium salt reduction method (MTT)
(1) Inoculating cells: A uniform cell suspension was prepared with culture solution containing fetal calf serum (10%). The suspension was implanted into a 96-well cell culture disc by 1000-10000 cells/200 μL per well.
(§2) (2) Culturing cells: The cells were cultured for 3-5 days according to known methods in the art (culturing time depending on experiment objective and requirement).
(§3) (3) Colour response: The cells were cultured for 3-5 days, 20 μl of MTT solution (5 mg/mL, PBS <pH=7.4>) was added in each well, incubated for 4 h. Culture was terminated and the culture suspension was carefully sucked out. As for suspension cells, they need be centrifuged before suspension solution in wells was sucked out. 150 μL of DMSO was added in each well, vibrated for 10 min. The crystal was fully dissolved.
(§4) (4) Colorimetry: Light absorbance values in each well were measured by ELISA at 490 nm and the results were recorded. The cell growth curve was drawn with time as the abscissa and absorbance values as vertical coordinates.
Model principle: Dehydrogenase related to NADP exists in mitochondria of living cell. Yellow MIT is reduced to insoluble blue-purple Formanzan. Dehydrogenase is disappeared in dead cell and MIT can not be reduced. According to reduction extent, action effect of sample on tumor cell is defected.

[2] = system: MHCC97L liver cancer cell strains; assay: Tetrazolium salt reduction method (MTT) on human liver cancer cell strain MHCC97L; format: cell-based
Protocol: 3. human liver cancer cell strains MHCC97L model discrimination
as §1
(1) Inoculating cells: Inoculating cells: A uniform cell suspension was prepared with culture solution containing fetal calf serum (10%). The suspension was implanted into a 96-well cell culture disc by 1000-10000 cells/200 μL per well.
as §2, §3, §4
Model principle: Dehydrogenase related to NADP exists in mitochondria of living cell. Yellow MTT is reduced to insoluble blue-purple Formanzan. Dehydrogenase is disappeared in dead cell and MTT can not be reduced. According to reduction extent, action effect of sample on tumor cell is defected.

[3] = Homo sapiens, PLC-PRF-5, read-out: PLC/PRF/5 IC50 (μM)
[4] = Homo sapiens, MHCC97L, read-out: MHCC97L IC50 (μM)
[5] = MTT, cells cultured 3-5 days, read-out: PLC/PRF/5 IC50
[6] = MTT, cells cultured 3-5 days, read-out: MHCC97L IC50
[7] = Homo sapiens, PLC-PRF-5, MTT, cells cultured 3-5 days, read-out: PLC/PRF/5 IC50
[8] = Homo sapiens, MHCC97L, MTT, cells cultured 3-5 days, read-out: MHCC97L IC50

SMILES	IC50 [1, 5]	IC50 [2, 6]	IC50 [1, 7]	IC50 [2, 8]	also measured
COc1cc([N+](=O)[O-])c2cc1Oc1ccc(cc1)C[C@H]1c3cc(c(OC)cc3CCN1C)Oc1c(OC)c(OC)cc3c1[C@H](C2)N(C)CC3 [Compound H-27]	–	–	–	–	IC50 [1, 3]: 2.9 µM; IC50 [2, 4]: 1.9 µM
COc1cc(Cl)c2cc1Oc1ccc(cc1)C[C@H]1c3cc(c(OC)cc3CCN1C)Oc1c(OC(C)=O)c(OC)c(Cl)c3c1[C@H](C2)N(C)CC3 [Compound H-50]	9.8 µM	3.3 µM	–	–	–
COC(=O)C(=O)Nc1cc(OC)c2cc1C[C@H]1c3c(cc(OC)c(OC)c3Oc3cc4c(cc3OC)CCN(C)[C@H]4Cc3ccc(cc3)O2)CCN1C [Compound H-14]	12.7 µM	7.9 µM	–	–	–
COc1cc(NC(=O)CO)c2cc1Oc1ccc(cc1)C[C@H]1c3cc(c(OC)cc3CCN1C)Oc1c(OC)c(OC)cc3c1[C@H](C2)N(C)CC3 [Compound H-12]	–	–	10.1 µM	9.1 µM	–
COc1cc2c3cc1Oc1c(OC)c(OC)c(Cl)c4c1[C@H](Cc1c([N+](=O)[O-])cc(OC)c(c1Cl)Oc1ccc(cc1)C[C@@H]3N(C)CC2)N(C)CC4 [Compound H-44]	4.1 µM	9.4 µM	–	–	–
COc1cc(NS(=O)(=O)c2ccc(Cl)cc2Cl)c2cc1Oc1ccc(cc1)C[C@H]1c3cc(c(OC)cc3CCN1C)Oc1c(OC)c(OC)cc3c1[C@H](C2)N(C)CC3 [Compound H-22]	2.1 µM	5.6 µM	–	–	–
COc1cc(NS(=O)(=O)c2ccccc2[N+](=O)[O-])c2cc1Oc1ccc(cc1)C[C@H]1c3cc(c(OC)cc3CCN1C)Oc1c(OC)c(OC)cc3c1[C@H](C2)N(C)CC3 [Compound H-21]	10.8 µM	11.3 µM	–	–	–
COc1cc(S(=O)(=O)O)c2cc1Oc1ccc(cc1)C[C@H]1c3cc(c(OC)cc3CCN1C)Oc1c(OC)c(OC)c(Br)c3c1[C@H](C2)N(C)CC3 [Compound H-40]	10.5 µM	9.2 µM	–	–	–
COc1cc(N)c2cc1Oc1ccc(cc1)C[C@H]1c3cc(c(OC)cc3CCN1C)Oc1c(OC)c(OC)cc3c1[C@H](C2)N(C)CC3 [Compound H-29]	–	–	14.8 µM	10.1 µM	–
COc1cc([N+](=O)[O-])c2cc1Oc1ccc(cc1)C[C@H]1c3cc(c(OC)cc3CCN1C)Oc1c(OC)c(OC)c([N+](=O)[O-])c3c1[C@H](C2)N(C)CC3 [Compound H-28]	–	–	20.1 µM	8.1 µM	–
COc1cc2c3cc1Oc1c(OC(C)=O)c(OC)c(Cl)c4c1[C@H](Cc1c(Cl)cc(OC)c(c1Cl)Oc1ccc(cc1)C[C@@H]3N(C)CC2)N(C)CC4 [Compound H-51]	–	–	–	–	IC50 [1, 3]: 1.4 µM; IC50 [2, 4]: 10.4 µM
COc1cc(NC(=O)OCC(C)C)c2cc1Oc1ccc(cc1)C[C@H]1c3cc(c(OC)cc3CCN1C)Oc1c(OC)c(OC)cc3c1[C@H](C2)N(C)CC3 [Compound H-08]	4.6 µM	1.4 µM	–	–	–
COc1cc(Br)c2cc1Oc1ccc(cc1)C[C@H]1c3cc(c(OC)cc3CCN1C)Oc1c(OC(C)=O)c(OC)c(Br)c3c1[C@H](C2)N(C)CC3 [Compound H-49]	–	–	–	–	IC50 [1, 3]: 2.4 µM; IC50 [2, 4]: 8.7 µM
COc1ccc2cc1Oc1ccc(cc1)C[C@H]1c3cc(c(OC)cc3CCN1C)Oc1c(OC(C)=O)c(OC)c(Br)c3c1[C@H](C2)N(C)CC3 [Compound H-48]	–	–	–	–	IC50 [1, 3]: 0.5 µM; IC50 [2, 4]: 4.1 µM
COc1ccc2cc1Oc1ccc(cc1)C[C@H]1c3cc(c(OC)cc3CCN1C)Oc1c(OCc3ccccc3)c(OC)cc3c1[C@H](C2)[N+](C)(Cc1ccccc1)CC3 (some centres unmarked) [Compound H-31]	–	–	–	–	IC50 [1, 3]: 12.7 µM; IC50 [2, 4]: 12.7 µM
COc1ccc(C(=O)Nc2cc(OC)c3cc2C[C@H]2c4c(cc(OC)c(OC)c4Oc4cc5c(cc4OC)CCN(C)[C@H]5Cc4ccc(cc4)O3)CCN2C)cc1 [Compound H-04]	5.4 µM	12.2 µM	–	–	–
COc1cc(NS(C)(=O)=O)c2cc1Oc1ccc(cc1)C[C@H]1c3cc(c(OC)cc3CCN1C)Oc1c(OC)c(OC)cc3c1[C@H](C2)N(C)CC3 [Compound H-17]	–	–	4.6 µM	9.8 µM	–
COc1cc(NC(C)=O)c2cc1Oc1ccc(cc1)C[C@H]1c3cc(c(OC)cc3CCN1C)Oc1c(OC)c(OC)cc3c1[C@H](C2)N(C)CC3 [Compound H-01]	–	–	–	–	IC50 [1, 3]: 12.3 µM; IC50 [2, 4]: 12.9 µM
COc1cc(NS(=O)(=O)c2ccccc2)c2cc1Oc1ccc(cc1)C[C@H]1c3cc(c(OC)cc3CCN1C)Oc1c(OC)c(OC)cc3c1[C@H](C2)N(C)CC3 [Compound H-18]	10.7 µM	9.1 µM	–	–	–
COc1cc(N=O)c2cc1Oc1ccc(cc1)C[C@H]1c3cc(c(OC)cc3CCN1C)Oc1c(OC)c(OC)cc3c1[C@H](C2)N(C)CC3 [Compound H-30]	–	–	–	10.7 µM	–
COc1cc(NC(=O)COC(C)=O)c2cc1Oc1ccc(cc1)C[C@H]1c3cc(c(OC)cc3CCN1C)Oc1c(OC)c(OC)cc3c1[C@H](C2)N(C)CC3 [Compound H-13]	10.1 µM	8.4 µM	–	–	–

More lines, main results first:

IC50 [1, 5]	IC50 [2, 6]	IC50 [1, 7]	IC50 [2, 8]	SMILES	also measured
–	–	8.1 µM	8.8 µM	COc1cc([N+](=O)[O-])c2cc1Oc1ccc(cc1)C[C@H]1c3cc(c(OC)cc3CCN1C)Oc1c(OC)c(OC)c(Cl)c3c1[C@H](C2)N(C)CC3 [Compound H-43]	–
–	–	3.4 µM	9.6 µM	COc1ccc2cc1Oc1ccc(cc1)C[C@H]1c3cc(c(OC)cc3CCN1C)Oc1c(ON=O)c(OC)cc3c1[C@H](C2)N(C)CC3 [Compound H-42]	–
–	–	7.8 µM	6.6 µM	COc1cc(N)c2cc1Oc1ccc(cc1)C[C@H]1c3cc(c(OC)cc3CCN1C)Oc1c(OC(=O)c3ccccc3)c(OC)cc3c1[C@H](C2)N(C)CC3 [Compound H-34]	–
6.7 µM	9.7 µM	–	–	COc1cc([N+](=O)[O-])c2cc1Oc1ccc(cc1)C[C@H]1c3cc(c(OC)cc3CCN1C)Oc1c(OC(=O)c3ccccc3)c(OC)cc3c1[C@H](C2)N(C)CC3 [Compound H-52]	–
–	34.4 µM	26.9 µM	34.4 µM	CNC(=O)c1cc(Oc2ccc(NC(=O)Nc3ccc(Cl)c(C(F)(F)F)c3)cc2)ccn1 [Sorafenib, reference compound]	–
–	–	3.2 µM	0.4 µM	COc1cc(Cl)c2cc1Oc1ccc(cc1)C[C@H]1c3cc(c(OC)cc3CCN1C)Oc1c(OC)c(OC)c(Br)c3c1[C@H](C2)N(C)CC3 [Compound H-54]	–
–	–	9 µM	8.6 µM	COc1cc2c3cc1Oc1c(OC)c(OC)c(Br)c4c1[C@H](Cc1c(S(=O)(=O)O)cc(OC)c(c1Br)Oc1ccc(cc1)C[C@@H]3N(C)CC2)N(C)CC4 [Compound H-41]	–
–	–	11.7 µM	8.9 µM	COc1cc(S(=O)(=O)O)c2cc1Oc1ccc(cc1)C[C@H]1c3cc(c(OC)cc3CCN1C)Oc1c(OC(=O)c3ccccc3)c(OC)cc3c1[C@H](C2)N(C)CC3 [Compound H-45]	–
–	–	8.1 µM	9.9 µM	COc1cc(S(=O)(=O)OC)c2cc1Oc1ccc(cc1)C[C@H]1c3cc(c(OC)cc3CCN1C)Oc1c(OC)c(OC)cc3c1[C@H](C2)N(C)CC3 [Compound H-39]	–
–	–	11.9 µM	12.1 µM	COc1cc2c3cc1Oc1c(OC)c(OC)c(Br)c4c1[C@H](Cc1c([N+](=O)[O-])cc(OC)c(c1Br)Oc1ccc(cc1)C[C@@H]3N(C)CC2)N(C)CC4 [Compound H-36]	–
–	–	7.6 µM	7.3 µM	C=C(OC)/C(OC)=C1/Oc2cc3c(cc2OC)CCN(C)[C@H]3Cc2ccc(cc2)Oc2cc(c(S(=O)(=O)O)cc2OC)C[C@H]2C1=CCCN2C [Compound H-37]	–
–	–	9.3 µM	–	COc1cc([N+](=O)[O-])c2cc1Oc1ccc(cc1)C[C@H]1c3cc(c(OC)cc3CCN1C)Oc1c(OC(=O)c3ccccc3)c(OC)cc3c1[C@H](C2)N(C)CC3 [Compound H-33]	–
–	–	3.2 µM	1.1 µM	COc1cc(S(=O)(=O)O)c2cc1Oc1ccc(cc1)C[C@H]1c3cc(c(OC)cc3CCN1C)Oc1c(O)c(OC)cc3c1[C@H](C2)N(C)CC3 [Compound H-53]	–
–	–	8.9 µM	1.26 µM	COc1cc([N+](=O)[O-])c2cc1Oc1ccc(cc1)C[C@H]1c3cc(c(OC)cc3CCN1C)Oc1c(OCc3ccccc3)c(OC)cc3c1[C@H](C2)N(C)CC3 [Compound H-32]	–
–	–	10.2 µM	10.7 µM	COc1cc(S(=O)(=O)Nc2ccccc2)c2cc1Oc1ccc(cc1)C[C@H]1c3cc(c(OC)cc3CCN1C)Oc1c(OC)c(OC)cc3c1[C@H](C2)N(C)CC3 [Compound H-38]	–
